System: NCI-H23 complex spheroids with HUVEC/MSC, viability
Assay: Anticancer human tumor NCI-H23 cell line growth inhibition [RAS];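 note: spheroids exposed to compound for 7 days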;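 for viability, T/C: 100% = DMSO vehicle control viability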
Conditions: for viability, T/C: stronger effect = lower value; for IC50: curve of first compound
Outline: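 Multi-cell-type spheroids: tumor cells plus HUVEC endothelial cells and mesenchymal stem cells. RAS-pathway inhibitors were combined with targeted agents, each dosed in half-log steps down from clinical Cmax, or from 10 microM when Cmax was unknown.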

[1] = second compound 0.00316 µM, first compound 0.0316 µM
[2] = second compound 0.00316 µM, first compound 0.1 µM
[3] = second compound 0.00316 µM, first compound 0.316 µM
[4] = second compound 0.00316 µM, first compound 1 µM
[5] = second compound 0.00316 µM, first compound 3.16 µM
[6] = second compound 0.00316 µM, first compound 10 µM
[7] = second compound 0.01 µM, first compound 0.0316 µM
[8] = second compound 0.01 µM, first compound 0.1 µM
[9] = second compound 0.01 µM, first compound 0.316 µM
[10] = second compound 0.01 µM, first compound 1 µM
[11] = second compound 0.01 µM, first compound 3.16 µM
[12] = second compound 0.01 µM, first compound 10 µM
[13] = second compound 0.0316 µM, first compound 0.0316 µM
[14] = second compound 0.0316 µM, first compound 0.1 µM
[15] = second compound 0.0316 µM, first compound 0.316 µM
[16] = second compound 0.0316 µM, first compound 1 µM
[17] = second compound 0.0316 µM, first compound 3.16 µM
[18] = second compound 0.0316 µM, first compound 10 µM
[19] = second compound 0.1 µM, first compound 0.0316 µM
[20] = second compound 0.1 µM, first compound 0.1 µM
[21] = second compound 0.1 µM, first compound 0.316 µM
[22] = second compound 0.1 µM, first compound 1 µM
[23] = second compound 0.1 µM, first compound 3.16 µM
[24] = second compound 0.1 µM, first compound 10 µM
[25] = second compound 0.316 µM, first compound 0.0316 µM
[26] = second compound 0.316 µM, first compound 0.1 µM
[27] = second compound 0.316 µM, first compound 0.316 µM
[28] = second compound 0.316 µM, first compound 1 µM
[29] = second compound 0.316 µM, first compound 3.16 µM
[30] = second compound 0.316 µM, first compound 10 µM
[31] = second compound 1 µM, first compound 0.0316 µM
[32] = second compound 1 µM, first compound 0.1 µM
[33] = second compound 1 µM, first compound 0.316 µM
[34] = second compound 1 µM, first compound 1 µM
[35] = second compound 1 µM, first compound 3.16 µM
[36] = second compound 1 µM, first compound 10 µM

`Cc1nc(N2CCC3(CC2)COC(C)C3N)c(CO)nc1Sc1ccnc(N)c1Cl` (centres undefined) was tested, and the viability, T/C (compound 0.0316 µM) was 103% [middle of 4 runs], the viability, T/C (compound 0.316 µM) was 74.3% [middle of 4 runs] and the viability, T/C (compound 1 µM) was 61.8% [middle of 4 runs]. For the same compound, the viability, T/C (compound 3.16 µM) was 52.3% [middle of 4 runs] and the viability, T/C (compound 10 µM) was 48.9% [middle of 4 runs].
Work on `CC(=O)OC12COC1CC(O)C1(C)C(=O)C(O)C3=C(C)C(OC(=O)C(O)C(NC(=O)OC(C)(C)C)c4ccccc4)CC(O)(C(OC(=O)c4ccccc4)C21)C3(C)C` (centres undefined) + C=CC(=O)N1CCN(c2nc(OCC3CCCN3C)nc3c(F)c(-c4nc(N)cc(C)c4C(F)(F)F)c(Cl)cc23)C(C)C1 yielded an IC50 (second compound 0.00316 µM) of less than 31.6 nM, an IC50 (second compound 0.01 µM) of less than 31.6 nM and an IC50 (second compound 0.0316 µM) of less than 31.6 nM. The IC50 (second compound 0.1 µM) was less than 31.6 nM, the IC50 (second compound 0.316 µM) was less than 31.6 nM and the IC50 (second compound 1 µM) was less than 31.6 nM. It also gave a viability, T/C [1] of 12.9%, a viability, T/C [2] of 17% and a viability, T/C [3] of 17.9%. For the same compound, the viability, T/C [4] was 16.9%, the viability, T/C [5] was 25.1% and the viability, T/C [6] was 41.9%. For the same compound, the viability, T/C [7] was 14.2%, the viability, T/C [8] was 17.6% and the viability, T/C [9] was 13.1%. The viability, T/C [10] was 18.7%, the viability, T/C [11] was 19.1% and the viability, T/C [12] was 28.7%. It also gave a viability, T/C [13] of 15.5%, a viability, T/C [14] of 17.1% and a viability, T/C [15] of 15.6%. It also gave a viability, T/C [16] of 15.9%, a viability, T/C [17] of 23.9% and a viability, T/C [18] of 26.2%. It also gave a viability, T/C [19] of 12.4%, a viability, T/C [20] of 15.2% and a viability, T/C [21] of 11.8%. For the same compound, the viability, T/C [22] was 14.9%, the viability, T/C [23] was 22.8% and the viability, T/C [24] was 22.1%. For the same compound, the viability, T/C [25] was 11.1%, the viability, T/C [26] was 13.9% and the viability, T/C [27] was 14.3%. It also gave a viability, T/C [28] of 16.3%, a viability, T/C [29] of 18.9% and a viability, T/C [30] of 26.8%. For the same compound, the viability, T/C [31] was 11.8%, the viability, T/C [32] was 14.7% and the viability, T/C [33] was 14.4%. It also gave a viability, T/C [34] of 15.4%, a viability, T/C [35] of 21.5% and a viability, T/C [36] of 20.9%.
Compound `CC(C)NCC(C(=O)N1CCN(c2ncnc3c2C(C)CC3O)CC1)c1ccc(Cl)cc1` (centres undefined) + C=CC(=O)N1CCN(c2nc(OCC3CCCN3C)nc3c(F)c(-c4nc(N)cc(C)c4C(F)(F)F)c(Cl)cc23)C(C)C1 has an IC50 (second compound 0.00316 µM) of 548 nM, an IC50 (second compound 0.01 µM) of 85.9 nM and an IC50 (second compound 0.0316 µM) of less than 31.6 nM. For the same compound, the IC50 (second compound 0.1 µM) was less than 31.6 nM, the IC50 (second compound 0.316 µM) was less than 31.6 nM and the IC50 (second compound 1 µM) was less than 31.6 nM. For the same compound, the viability, T/C [1] was 57.1%, the viability, T/C [2] was 67.7% and the viability, T/C [3] was 51.7%. The viability, T/C [4] was 45.4%, the viability, T/C [5] was 33.4% and the viability, T/C [6] was 29.2%. It also gave a viability, T/C [7] of 52.5%, a viability, T/C [8] of 54.5% and a viability, T/C [9] of 39.5%. It also gave a viability, T/C [10] of 37%, a viability, T/C [11] of 28.4% and a viability, T/C [12] of 20%. For the same compound, the viability, T/C [13] was 39.1%, the viability, T/C [14] was 48.1% and the viability, T/C [15] was 31.2%. It also gave a viability, T/C [16] of 30.2%, a viability, T/C [17] of 24.3% and a viability, T/C [18] of 16.9%. It also gave a viability, T/C [19] of 39.3%, a viability, T/C [20] of 39.4% and a viability, T/C [21] of 29.9%. The viability, T/C [22] was 25.8%, the viability, T/C [23] was 20.2% and the viability, T/C [24] was 18.8%. It also gave a viability, T/C [25] of 37%, a viability, T/C [26] of 34.2% and a viability, T/C [27] of 28.9%. It also gave a viability, T/C [28] of 23.1%, a viability, T/C [29] of 21.3% and a viability, T/C [30] of 17.9%. For the same compound, the viability, T/C [31] was 34.9%, the viability, T/C [32] was 37.1% and the viability, T/C [33] was 34.2%. The viability, T/C [34] was 26.1%, the viability, T/C [35] was 23.3% and the viability, T/C [36] was 16.6%.
